What was measured:
Format in all cases: physicochemical
[1] = Solubility in 1,1,3,3-tetramethyl urea at 90° C. in a closed vial; conditions: tetramethyl urea (TMU)
Procedure: 1,1,3,3tetramethyl urea, also called “tetramethyl urea” and sometimes referenced “TMU” can dissolve up to 7% weight 2,4-hexadiyn-1,6-bis(ethylurea) at a temperature of 90° C. in a closed vial.

[2] = Room temperature solubilities in various solvent systems (Table 3); conditions: for Solubility: 20° C., material recrystallized from acetic acid
Description: As is the case elsewhere herein, the acetone/water and ethanol/water solvent mixtures are given in weight-for-weight proportions in Table 3 and FIG. 10. It can be seen from Table 3 and FIG. 10 that some of the solvent systems displaying elevated solubility at higher temperatures, for example acetic acid and the several aqueous mixtures, have only limited solubility at room temperature.

[3] = Solubility test: ability of each solvent to dissolve at least 1 percent by weight at a process temperature near its boiling point (Example 1)
Description: This example illustrates solvent mapping, testing and solubility region definition for a diacetylenic monomer for which new solvents and solubility information are desired, namely 2,4-hexadiyn-1,6-bis(ethylurea) and for which reliable solubility parameter information is not available. In this example, solubility points are mapped for each of a number of representative samples of a wide range of solvents of different chemical types and physicochemical characteristics, according to their solubility parameters. The solubility points of the representative solvents (filled squares) are mapped on a plot of hydrogen bonding (δH), on the Y-axis, versus polar parameters (δP), on the X-axis, generating a map such as that shown in FIG. 4. Also shown in FIG. 4 are solubility points for solvent systems comprising 25 percent by weight water/solvent mixtures (unfilled squares).
Each solvent is tested for its ability to dissolve at least 1 percent by weight 2,4-hexadiyn-1,6-bis(ethylurea) at a temperature not more than 5° C. above the boiling point of the solvent. Because the boiling points of the solvents tested vary widely, ranging from 56° C. to 189° C. the solvents are processed in batches at temperatures of 60, 75, 82, and 90° C., respectively. The process temperature desirably is not greater than 4 to 5° C. above a given solvent's boiling point.
Some exemplary solubility data obtainable for 2,4-hexadiyn-1,6-bis(ethylurea) from the above-described solubility test with the solvents indicated, are set forth in Table 1 below along with solubility parameter information for the solvents. Also included in Table 1 are data regarding the 25 percent by weight water/solvent mixtures.

[4] = Further solubility tests at 1, 4, 7 and 10 percent by weight, 90° C. water bath (Example 2)
Procedure: A 90° C. water bath is employed to maintain the solvent or solution temperature and results obtainable are tabulated in Table 2 below, solubility parameter information again being included to facilitate understanding of the data for acetone and water, for reference.

[5] = solvent 1-Propanol, 90° C. water bath
[6] = solvent 2-Propanol (IPA), 90° C. water bath
[7] = solvent 25% Water/Acetone, 90° C. water bath
[8] = solvent 25% Water/DMF, 90° C. water bath
[9] = solvent 25% Water/DMSO, 90° C. water bath
[10] = solvent 25% Water/Ethanol, 90° C. water bath
[11] = solvent 25% Water/IPA, 90° C. water bath
[12] = solvent 25% water/acetic acid, 90° C. water bath
[13] = solvent 25% water/formic acid, 90° C. water bath
[14] = solvent Acetic acid, 90° C. water bath
[15] = solvent Acetone, 90° C. water bath
[16] = solvent DMSO, 90° C. water bath
[17] = solvent Ethanol, 90° C. water bath
[18] = solvent Ethylene Glycol, 90° C. water bath
[19] = solvent Formic acid, 90° C. water bath
[20] = solvent Methanol, 90° C. water bath
[21] = solvent Pyridine, 90° C. water bath
[22] = solvent Water, 90° C. water bath

CCNC(=O)NCC#CC#CCNC(=O)NCC [KE, 2,4-hexadiyn-1,6-bis(ethylurea)]
insoluble: solubility in water ([4]; water)
30 wt. % of the Solution: Solubility ([2]; Trifluoroaceticacetic acid)
33 wt. % of the Solution: Solubility ([2]; Dichloroacetic acid)
0.16 wt. % of the Solution: Solubility ([2]; Acetone/water 4:1 (weight for weight))
0.17 wt. % of the Solution: Solubility ([2]; Ethyl alcohol)
0.6 wt. % of the Solution: Solubility ([2]; Acetic acid)
up to 7 % weight: amount dissolved by 1,1,3,3-tetramethyl urea [1]
at least 1 percent by weight: amount dissolved ([3]; N,N-dimethyl formamide (DMF)) | amount dissolved ([3]; acetic acid) | amount dissolved ([3]; dimethyl sulfoxide (DMSO)) | amount dissolved ([3]; ethanol (EtOH)) | amount dissolved ([3]; ethylene glycol) | amount dissolved ([3]; the water/solvent mixtures (25 percent by weight water), all)
0.90 wt. % of the Solution: Solubility ([2]; Tetramethyl urea)
23 wt. % of the Solution: Solubility ([2]; Formic acid)
4 wt. % of the Solution: Solubility ([2]; DMF) | Solubility ([2]; DMSO)
at least 4 percent by weight: Solubility ([4]; 25% water/ethanol mixture (1 part water, 3 parts ethanol by weight)) | Solubility ([4]; water and acetone combined (25% Water/Acetone))
No: KE soluble at 1% wt? ([3]; solvent Acrylonitrile, process T 75 °C) | KE soluble at 1% wt? ([3]; solvent Benzene, process T 75 °C) | KE soluble at 1% wt? ([3]; solvent Ethyl acetate, process T 75 °C) | KE soluble at 1% wt? ([3]; solvent THF, process T 60 °C) | KE soluble at 1% wt? ([3]; solvent n-Hexane, process T 75 °C) | Is KE soluble at 4%? [4, 5] | Is KE soluble at 7%? [4, 5] | Is KE soluble at 10%? [4, 5] | Is KE soluble at 4%? [4, 6] | Is KE soluble at 7%? [4, 6] | Is KE soluble at 10%? [4, 6] | Is KE soluble at 7%? [4, 7] | Is KE soluble at 10%? [4, 7] | Is KE soluble at 10%? [4, 8] | Is KE soluble at 7%? [4, 9] | Is KE soluble at 10%? [4, 9] | Is KE soluble at 7%? [4, 10] | Is KE soluble at 10%? [4, 10] | Is KE soluble at 4%? [4, 11] | Is KE soluble at 7%? [4, 11] | Is KE soluble at 10%? [4, 11] | Is KE soluble at 10%? [4, 12] | Is KE soluble at 10%? [4, 13] | Is KE soluble at 1%? [4, 15] | Is KE soluble at 4%? [4, 15] | Is KE soluble at 7%? [4, 15] | Is KE soluble at 10%? [4, 15] | Is KE soluble at 4%? [4, 17] | Is KE soluble at 7%? [4, 17] | Is KE soluble at 10%? [4, 17] | Is KE soluble at 4%? [4, 18] | Is KE soluble at 7%? [4, 18] | Is KE soluble at 10%? [4, 18] | Is KE soluble at 7%? [4, 20] | Is KE soluble at 10%? [4, 20] | Is KE soluble at 4%? [4, 21] | Is KE soluble at 7%? [4, 21] | Is KE soluble at 10%? [4, 21] | Is KE soluble at 1%? [4, 22] | Is KE soluble at 4%? [4, 22] | Is KE soluble at 7%? [4, 22] | Is KE soluble at 10%? [4, 22]
less than 4 percent by weight: Solubility ([4]; pure ethanol)
0.27 wt. % of the Solution: Solubility ([2]; Methyl alcohol “MeOH”)
> 10%: Solubility ([4]; dimethyl sulfoxide, 90° C. water bath) | Solubility ([4]; formic acid, 90° C. water bath)
0.09 wt. % of the Solution: Solubility ([2]; Isopropyl alcohol)
about 1 % by weight: amount solvated by pyridine ([3]; pyridine)
0.18 wt. % of the Solution: Solubility ([2]; Ethanol/water 4:1 (weight for weight))
~13 % by weight: amount solvated by formic acid ([2]; formic acid, room temperature)
Yes: KE soluble at 1% wt? ([3]; solvent Ethanol, process T 75 °C) | Is KE soluble at 1%? [4, 5] | Is KE soluble at 1%? [4, 6] | Is KE soluble at 1%? [4, 7] | Is KE soluble at 4%? [4, 7] | Is KE soluble at 1%? [4, 8] | Is KE soluble at 4%? [4, 8] | Is KE soluble at 7%? [4, 8] | Is KE soluble at 1%? [4, 9] | Is KE soluble at 4%? [4, 9] | Is KE soluble at 1%? [4, 10] | Is KE soluble at 4%? [4, 10] | Is KE soluble at 1%? [4, 11] | Is KE soluble at 1%? [4, 12] | Is KE soluble at 4%? [4, 12] | Is KE soluble at 7%? [4, 12] | Is KE soluble at 1%? [4, 13] | Is KE soluble at 4%? [4, 13] | Is KE soluble at 7%? [4, 13] | Is KE soluble at 1%? [4, 14] | Is KE soluble at 4%? [4, 14] | Is KE soluble at 7%? [4, 14] | Is KE soluble at 10%? [4, 14] | Is KE soluble at 1%? ([4]; solvent DMF, 90° C. water bath) | Is KE soluble at 4%? ([4]; solvent DMF, 90° C. water bath) | Is KE soluble at 7%? ([4]; solvent DMF, 90° C. water bath) | Is KE soluble at 10%? ([4]; solvent DMF, 90° C. water bath) | Is KE soluble at 1%? [4, 16] | Is KE soluble at 4%? [4, 16] | Is KE soluble at 7%? [4, 16] | Is KE soluble at 10%? [4, 16] | Is KE soluble at 1%? [4, 17] | Is KE soluble at 1%? [4, 18] | Is KE soluble at 1%? [4, 19] | Is KE soluble at 4%? [4, 19] | Is KE soluble at 7%? [4, 19] | Is KE soluble at 10%? [4, 19] | Is KE soluble at 1%? [4, 20] | Is KE soluble at 4%? [4, 20] | Is KE soluble at 1%? [4, 21]

From US8642807B2, “Crystallized diacetylenic indicator compounds and methods of preparing the compounds” (Temptime Corporation, priority 2007, dated 2014)
